Patent EP2488529B1, “Spirocyclic derivatives as histone deacetylase inhibitors” (DAC S.r.l., priority 2009, dated 2011)

Tests used:
[1] = biological target: HDAC; assay: Assay of enzyme inhibition of HDAC (BIOMOL kit, fluorescence); assay type: biochemical; conditions: nuclear fraction of Hela cells; substrate 200 µM; 15 min at RT
Experimental: The in-vitro activity of HDAC inhibitors was assayed using a BIOMOL Kit, according to the instructions from the manufacturer (Biomolecular Research Laborator). 15 µl of 30 x diluted nuclear fraction of Hela cells, was diluted to 50 µl with the assay buffer containing the HDAC inhibitor and the substrate (lysine with acetylated amino group on the side chain) at a concentration of 200 µM. The samples were incubated for 15 min at RT and then exposed to a developer (10 min at RT). In this last step a fluorophore was produced, whose fluorescence was measured using an excitation wavelength of 355 nm and an emission at 460 nm. The IC50 was calculated using GraphPad Software.

[2] = system: A549; assay: Cell growth, CellTiter-Glo Luminescent Cell Viability Assay (antiproliferative assay); assay type: cell-based; conditions: Homo sapiens; A549 cells, incubated for 72 h
From the text: (§1) CellTiter-Glo® Luminescent Cell Viability Assay (Promega) is a homogeneous method of determining the number of viable cells in culture based on quantitation of the present ATP, which indicates the presence of metabolically active cells. The homogeneous assay procedure involves addition of a single reagent (CellTiter-Glo® Reagent) directly to the cells, which leads to cell lysis and generation of a luminescent signal proportional to the amount of the ATP and the number of cells present in culture. The assay relies on the properties of a proprietary thermostable luciferase (Ultra-Glo® recombinant luciferase), which generates a luminescent signal. K562, A549, and HCT-116 cells, in exponential growth, were incubated for 72 h with different concentrations of the inhibitors. After 72 h, a volume of CellTiter-Glo® Reagent equal to the volume of cell culture medium was added. The content was mixed for 2 min to induce cell lysis. The luminescence was recorded after further 10 min at RT in order to obtain a stable luminescent signal.
(§2) The IC50 was calculated using GraphPad Software.

[3] = system: K562; assay: as above; assay type: cell-based; conditions: Homo sapiens; K562 cells, incubated for 72 h
From the text: as §1, §2

[4] = system: HCT-116; assay: as above; assay type: cell-based; conditions: Homo sapiens; HCT-116 cells, incubated for 72 h; read-out: HCT116 IC50
From the text: as §1, §2

## O=C(/C=C/c1ccc2c(c1)C(=O)CC1(CCNC1)O2)NO (racemic) [Example 1, (±)-(E)-3-[4-Oxo-spiro(chromane-2,3'-pyrrolidine)-6-yl]-N-hydroxy-acrylamide]
[1]
  IC50: 100 to 1000 nM
[2]
  IC50: 1000 to 3000 nM
[3]
  IC50: ≥ 3000 nM
[4]
  IC50: 1000 to 3000 nM

## O=C(/C=C/c1ccc2c(c1)C(=O)CC1(CCN(Cc3ccccc3)C1)O2)NO (racemic) [Example 2, (±)-(E)-3-[1'-Benzyl-4-oxo-spiro(chromane-2,3'-pyrrolidine)-6-yl]-N-hydroxy-acrylamide]
[1]
  IC50: ≤ 100 nM
[2]
  IC50: ≤ 1000 nM
[3]
  IC50: ≤ 1000 nM
[4]
  IC50: ≤ 1000 nM

## CC(=O)N1CCC2(CC(=O)c3cc(/C=C/C(=O)NO)ccc3O2)C1 (racemic) [Example 5, (±)-(E)-3-[1'-Acetyl-4-oxo-spiro(chromane-2,3'-pyrrolidine)-6-yl]-N-hydroxy-acrylamide]
[1]
  IC50: 100 to 1000 nM
[2]
  IC50: ≥ 3000 nM
[3]
  IC50: ≥ 3000 nM
[4]
  IC50: ≥ 3000 nM

## O=C(/C=C/c1ccc2c(c1)C(=O)CC1(CCN(C(=O)c3ccccc3)C1)O2)NO (racemic) [Example 6, (±)-(E)-3-[1'-Benzoyl-4-oxo-spiro(chromane-2,3'-pyrrolidine)-6-yl]-N-hydroxy-acrylamide]
[1]
  IC50: 100 to 1000 nM
[2]
  IC50: 1000 to 3000 nM
[3]
  IC50: ≤ 1000 nM
[4]
  IC50: ≤ 1000 nM

## CN1CCC2(CC(=O)c3cc(/C=C/C(=O)NO)ccc3O2)C1 (racemic) [Example 7, (±)-(E)-3-[1'-Methyl-4-oxo-spiro(chromane-2,3'-pyrrolidine)-6-yl]-N-hydroxy-acrylamide]
[1]
  IC50: 100 to 1000 nM
[2]
  IC50: ≤ 1000 nM
[3]
  IC50: ≤ 1000 nM
[4]
  IC50: ≤ 1000 nM

## CCOC(=O)N1CCC2(CC(=O)c3cc(/C=C/C(=O)NO)ccc3O2)C1 (racemic) [Example 8, (±)-(E)-3-[1'-Ethyloxycarbonyl-4-oxo-spiro(chromane-2,3'-pyrrolidine)-6-yl]-N-hydroxy-acrylamide]
[1]
  IC50: 100 to 1000 nM
[2]
  IC50: ≤ 1000 nM
[3]
  IC50: ≤ 1000 nM
[4]
  IC50: ≤ 1000 nM

## O=C(/C=C/c1ccc2c(c1)C(=O)CC1(CCN(CCc3ccccc3)C1)O2)NO (racemic) [Example 9, (±)-(E)-3-[1'-(2-Phenyl-ethyl)-4-oxo-spiro(chromane-2,3'-pyrrolidine)-6-yl]-N-hydroxy-acrylamide]
[1]
  IC50: ≤ 100 nM
[2]
  IC50: ≤ 1000 nM
[3]
  IC50: ≤ 1000 nM
[4]
  IC50: ≤ 1000 nM

## Cn1cc(CN2CCC3(CC(=O)c4cc(/C=C/C(=O)NO)ccc4O3)C2)c2ccccc21 (racemic) [Example 10, (±)-(E)-3-[1'-(1-Methyl-1H-indol-3-ylmethyl)-4-oxo-spiro(chromane-2,3'-pyrrolidine)-6-yl]-N-hydroxy-acrylamide]
[1]
  IC50: ≤ 100 nM
[2]
  IC50: ≤ 1000 nM
[3]
  IC50: ≤ 1000 nM
[4]
  IC50: ≤ 1000 nM

## O=C(/C=C/c1ccc2c(c1)C(=O)CC1(CCN(Cc3ccc(F)cc3)C1)O2)NO (racemic) [Example 11, (±)-(E)-3-[1'-(4-Fluoro-benzyl)-4-oxo-spiro(chromane-2,3'-pyrrolidine)-6-yl]-N-hydroxy-acrylamide]
[1]
  IC50: 100 to 1000 nM
[2]
  IC50: ≤ 1000 nM
[3]
  IC50: ≤ 1000 nM
[4]
  IC50: ≤ 1000 nM

## O=C(/C=C/c1ccc2c(c1)C(=O)CC1(CCCNC1)O2)NO (racemic) [Example 12, (±)-(E)-3-[4-Oxo-spiro(chromane-2,3'-piperidine)-6-yl]-N-hydroxy-acrylamide]
[1]
  IC50: 100 to 1000 nM
[2]
  IC50: ≤ 1000 nM
[3]
  IC50: ≤ 1000 nM
[4]
  IC50: ≤ 1000 nM

## O=C(/C=C/c1ccc2c(c1)C(=O)CC1(CCCN(Cc3ccccc3)C1)O2)NO (racemic) [Example 13, (±)-(E)-3-[1'-Benzyl-4-oxo-spiro(chromane-2,3'-piperidine)-6-yl]-N-hydroxy-acrylamide]
[1]
  IC50: ≤ 100 nM
[2]
  IC50: ≤ 1000 nM
[3]
  IC50: ≤ 1000 nM
[4]
  IC50: ≤ 1000 nM

## CN1CCCC2(CC(=O)c3cc(/C=C/C(=O)NO)ccc3O2)C1 (racemic) [Example 14, (±)-(E)-3-[1'-Methyl-4-oxo-spiro(chromane-2,3'-piperidine)-6-yl]-N-hydroxy-acrylamide]
[1]
  IC50: 100 to 1000 nM
[2]
  IC50: ≤ 1000 nM
[3]
  IC50: ≤ 1000 nM
[4]
  IC50: ≤ 1000 nM

## CCOC(=O)N1CCCC2(CC(=O)c3cc(/C=C/C(=O)NO)ccc3O2)C1 (racemic) [Example 15, (±)-(E)-3-[1'-Ethyloxycarbonyl-4-oxo-spiro(chromane-2,3'-piperidine)-6-yl]-N-hydroxy-acrylamide]
[1]
  IC50: 100 to 1000 nM
[2]
  IC50: 1000 to 3000 nM
[3]
  IC50: ≤ 1000 nM
[4]
  IC50: ≤ 1000 nM

## CC(=O)N1CCCC2(CC(=O)c3cc(/C=C/C(=O)NO)ccc3O2)C1 (racemic) [Example 16, (±)-(E)-3-[1'-Acetyl-4-oxo-spiro(chromane-2,3'-piperidine)-6-yl]-N-hydroxy-acrylamide]
[1]
  IC50: 100 to 1000 nM
[2]
  IC50: ≥ 3000 nM
[3]
  IC50: ≥ 3000 nM
[4]
  IC50: ≥ 3000 nM

## O=C(/C=C/c1ccc2c(c1)C(=O)CC1(CCCN(Cc3ccc(F)cc3)C1)O2)NO (racemic) [Example 19, (±)-(E)-3-[1'-(4-Fluoro-benzyl)-4-oxo-spiro(chromane-2,3'-piperidine)-6-yl]-N-hydroxy-acrylamide]
[1]
  IC50: ≤ 100 nM
[2]
  IC50: 1000 to 3000 nM
[3]
  IC50: ≤ 1000 nM
[4]
  IC50: ≤ 1000 nM

## O=C(/C=C/c1ccc2c(c1)C(=O)CC1(CCCN(CCc3ccccc3)C1)O2)NO (racemic) [Example 20, (±)-(E)-3-[1'-(2-Phenyl-ethyl)-4-oxo-spiro(chromane-2,3'-piperidine)-6-yl]-N-hydroxy-acrylamide]
[1]
  IC50: ≤ 100 nM
[2]
  IC50: ≤ 1000 nM
[3]
  IC50: ≤ 1000 nM
[4]
  IC50: ≤ 1000 nM

## O=C(/C=C/c1ccc2c(c1)C(=O)CC1(CCCN(C(=O)c3ccccc3)C1)O2)NO (racemic) [Example 21, (±)-(E)-3-[1'-Benzoyl-4-oxo-spiro(chromane-2,3'-piperidine)-6-yl]-N-hydroxy-acrylamide]
[1]
  IC50: 100 to 1000 nM
[2]
  IC50: ≥ 3000 nM
[3]
  IC50: 1000 to 3000 nM
[4]
  IC50: 1000 to 3000 nM

## O=C(/C=C/c1ccc2c(c1)C(=O)CC1(CCCNCC1)O2)NO (racemic) [Example 22, (±)-(E)-3-[4-Oxo-spiro(chromane-2,4'-azepane)-6-yl]-N-hydroxy-acrylamide]
[1]
  IC50: 100 to 1000 nM
[2]
  IC50: ≥ 3000 nM
[3]
  IC50: ≥ 3000 nM
[4]
  IC50: 1000 to 3000 nM

## O=C(/C=C/c1ccc2c(c1)C(=O)CC1(CCCN(Cc3ccccc3)CC1)O2)NO (racemic) [Example 23, (±)-(E)-3-[1'-Benzyl-4-oxo-spiro(chromane-2,4'-azepane)-6-yl]-N-hydroxy-acrylamide]
[1]
  IC50: ≤ 100 nM
[2]
  IC50: ≤ 1000 nM
[3]
  IC50: ≤ 1000 nM
[4]
  IC50: ≤ 1000 nM

## CC(=O)N1CCCC2(CC1)CC(=O)c1cc(/C=C/C(=O)NO)ccc1O2 (racemic) [Example 24, (±)-(E)-3-[1'-Acetyl-4-oxo-spiro(chromane-2,4'-azepane)-6-yl]-N-hydroxy-acrylamide]
[1]
  IC50: 100 to 1000 nM
[2]
  IC50: ≥ 3000 nM
[3]
  IC50: ≥ 3000 nM
[4]
  IC50: ≥ 3000 nM

## O=C(/C=C/c1ccc2c(c1)C(=O)CC1(CCCN(C(=O)c3ccccc3)CC1)O2)NO (racemic) [Example 25, (±)-(E)-3-[1'-Benzoyl-4-oxo-spiro(chromane-2,4'-azepane)-6-yl]-N-hydroxy-acrylamide]
[1]
  IC50: 100 to 1000 nM
[2]
  IC50: ≥ 3000 nM
[3]
  IC50: 1000 to 3000 nM
[4]
  IC50: ≤ 1000 nM

## CN1CCCC2(CC1)CC(=O)c1cc(/C=C/C(=O)NO)ccc1O2 (racemic) [Example 26, (±)-(E)-3-[1'-Methyl-4-oxo-spiro(chromane-2,4'-azepane)-6-yl]-N-hydroxy-acrylamide]
[1]
  IC50: 100 to 1000 nM
[2]
  IC50: ≤ 1000 nM
[3]
  IC50: ≤ 1000 nM
[4]
  IC50: ≤ 1000 nM

## CCOC(=O)N1CCCC2(CC1)CC(=O)c1cc(/C=C/C(=O)NO)ccc1O2 (racemic) [Example 27, (±)-(E)-3-[1'-Ethyloxycarbonyl-4-oxo-spiro(chromane-2,4'-azepane)-6-yl]-N-hydroxy-acrylamide]
[1]
  IC50: 100 to 1000 nM
[2]
  IC50: ≥ 3000 nM
[3]
  IC50: 1000 to 3000 nM
[4]
  IC50: 1000 to 3000 nM

## O=C(/C=C/c1ccc2c(c1)C(=O)CC1(CCCN(CCc3ccccc3)CC1)O2)NO (racemic) [Example 28, (±)-(E)-3-[1'-(2-Phenyl-ethyl)-4-oxo-spiro(chromane-2,4'-azepane)-6-yl]-N-hydroxy-acrylamide]
[1]
  IC50: ≤ 100 nM
[2]
  IC50: ≤ 1000 nM
[3]
  IC50: ≤ 1000 nM
[4]
  IC50: ≤ 1000 nM

## Cn1cc(CN2CCCC3(CC2)CC(=O)c2cc(/C=C/C(=O)NO)ccc2O3)c2ccccc21 (racemic) [Example 47, (±)-(E)-3-[1'-(1-Methyl-1H-indol-3-ylmethyl)-4-oxo-spiro(chromane-2,4'-azepane)-6-yl]-N-hydroxy-acrylamide]
[1]
  IC50: 100 to 1000 nM

## CCN1CCCC2(CC(=O)c3cc(/C=C/C(=O)NO)ccc3O2)C1 (racemic) [Example 48, (±)-(E)-3-[1'-Ethyl-4-oxo-spiro(chromane-2,3'-piperidine)-6-yl]-N-hydroxy-acrylamide]
[1]
  IC50: 100 to 1000 nM
